The record followed here is PubChem BioAssay AID248 (DTP/NCI, 2004).

The test deals with L1210 leukemia ip in BDF1 mice, survival T/C. Put plainly: NCI In Vivo Anticancer Drug Screen. Data for tumor model L1210 Leukemia (intraperitoneal) in B6D2F1 (BDF1) mice. Conditions: endpoint: mean survival time, higher = longer survival. The method in brief:
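Ratio derived from survival: compound-dosed mice over vehicle-dosed mice, all bearing a transplantable tumor.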

[1] abbreviates: dose: 100.0 mg/kg/injection, schedule: Q04DX003 (ip), vehicle: saline with Tween-80.
Where [2] appears, read: dose: 100.0 mg/kg/injection, schedule: Q01DX009 (ip), vehicle: saline with Tween-80.
Where [3] appears, read: dose: 200.0 mg/kg/injection, schedule: Q01DX009 (ip), vehicle: saline with Tween-80.
Setting [4] is: dose: 400.0 mg/kg/injection, schedule: Q01DX009 (ip), vehicle: saline with Tween-80.
[5] abbreviates: dose: 75.0 mg/kg/injection, schedule: Q01DX001 (ip), vehicle: saline.

The structures appear in SMILES notation. “And” between values parts separate entries of the source, which are not always exact repeats. Equal entries are not always repeated. Toxic doses and inconclusive results are not listed.

In the case of `CCOC(=O)Cc1ccc2[nH]c(C(=O)OCC)cc(=O)c2c1`, the T/C is 95 % of control (dose: 100.0 mg/kg/injection, schedule: Q01DX001 (ip), vehicle: saline); 90 % of control (dose: 200.0 mg/kg/injection, schedule: Q01DX001 (ip), vehicle: saline); 95 % of control (dose: 400.0 mg/kg/injection, schedule: Q01DX001 (ip), vehicle: saline).

With `N#CC1=C(N)CCCC1`, the T/C under setting [1] is 104 % of control.

Take `[O-][n+]1ccccc1C(c1ccccc1)c1ccccc1`: the T/C reads like this: (dose: 50.0 mg/kg/injection, schedule: Q01DX009 (ip), vehicle: saline with Tween-80) 90 % of control; under setting [2], 90 % of control; under setting [3], 90 % of control.

As for `Clc1cc(N2CC2)nc(N2CC2)n1`, the T/C by setting is: (dose: 1.56 mg/kg/injection, schedule: Q01DX001 (ip), vehicle: saline) 92 % of control; (dose: 1.56 mg/kg/injection, schedule: Q04DX003 (ip), vehicle: saline) 110 % of control; (dose: 1.6 mg/kg/injection, schedule: Q01DX009 (ip), vehicle: carboxymethylcellulose (CMC)) 118 % of control; (dose: 2.14 mg/kg/injection, schedule: Q01DX009 (ip), vehicle: saline) 166 % of control and 184 % of control; (dose: 2.5 mg/kg/injection, schedule: Q01DX001 (ip), vehicle: carboxymethylcellulose (CMC)) 111 % of control; (dose: 2.7 mg/kg/injection, schedule: Q01DX009 (ip), vehicle: carboxymethylcellulose (CMC)) 120 % of control. The T/C reads like this: (dose: 3.12 mg/kg/injection, schedule: Q01DX001 (ip), vehicle: saline) 93 % of control; (dose: 3.25 mg/kg/injection, schedule: Q01DX009 (ip), vehicle: saline with Tween-80) 185 % of control; (dose: 3.25 mg/kg/injection, schedule: Q01DX009 (ip), vehicle: saline) 177 % of control and 226 % of control; (dose: 4.12 mg/kg/injection, schedule: Q04DX003 (ip), vehicle: saline) 156 % of control; (dose: 4.44 mg/kg/injection, schedule: Q01DX001 (ip), vehicle: carboxymethylcellulose (CMC)) 115 % of control; (dose: 4.87 mg/kg/injection, schedule: Q01DX009 (ip), vehicle: saline) 103 % of control. For the same compound, the T/C was 120 % of control (dose: 5.0 mg/kg/injection, schedule: Q01DX001 (ip), vehicle: carboxymethylcellulose (CMC)); 118 % of control (dose: 5.0 mg/kg/injection, schedule: Q01DX001 (ip), vehicle: saline); 98 % of control (dose: 6.25 mg/kg/injection, schedule: Q01DX001 (ip), vehicle: saline); 166 % of control and 173 % of control and 202 % of control (dose: 6.25 mg/kg/injection, schedule: Q04DX003 (ip), vehicle: saline); 121 % of control (dose: 6.67 mg/kg/injection, schedule: Q01DX001 (ip), vehicle: carboxymethylcellulose (CMC)); 106 % of control (dose: 7.5 mg/kg/injection, schedule: Q01DX009 (ip), vehicle: carboxymethylcellulose (CMC)). In addition, the T/C is, setting by setting: (dose: 10.0 mg/kg/injection, schedule: Q01DX001 (ip), vehicle: carboxymethylcellulose (CMC)) 154 % of control; (dose: 10.0 mg/kg/injection, schedule: Q01DX001 (ip), vehicle: saline) 156 % of control and 160 % of control; (dose: 15.0 mg/kg/injection, schedule: Q01DX001 (ip), vehicle: saline) 160 % of control; (dose: 20.0 mg/kg/injection, schedule: Q01DX001 (ip), vehicle: carboxymethylcellulose (CMC)) 104 % of control.

In the case of `O=C(Nc1cccc2ccccc12)SCc1ccccc1`, the T/C was 94 % of control (dose: 100.0 mg/kg/injection, schedule: Q04DX002 (ip), vehicle: Klucel (hydroxypropylcellulose) (HPC)) and 90 % of control (dose: 400.0 mg/kg/injection, schedule: Q04DX002 (ip), vehicle: Klucel (hydroxypropylcellulose) (HPC)).

As for `Cc1cc(Cl)ccc1NS(=O)(=O)c1ccc(Br)cc1`, the T/C under setting [2] is 97 % of control; the T/C under setting [1] was 102 % of control; the T/C under setting [3] was 98 % of control; the T/C (dose: 200.0 mg/kg/injection, schedule: Q04DX003 (ip), vehicle: saline with Tween-80) was 100 % of control; the T/C under setting [4] was 93 % of control; the T/C (dose: 400.0 mg/kg/injection, schedule: Q04DX003 (ip), vehicle: saline with Tween-80) is 96 % of control.

As to `CC(=O)Nc1nc2ncc(CCN(C)c3ccc(C(=O)O)cc3)nc2c(=O)[nH]1`, the T/C by setting is: under setting [5], 102 % of control; (dose: 150.0 mg/kg/injection, schedule: Q01DX001 (ip), vehicle: saline) 101 % of control.

`CC(O)(C#CC(C)(O)c1ccccc1)c1ccccc1` (configuration not stated): the T/C was 97 % of control under setting [2], 98 % of control under setting [3] and 113 % of control under setting [4].

Take `CCCCOC(=O)CC(=O)OCCCC`: the T/C (dose: 100.0 mg/kg/injection, schedule: Q01DX009 (ip), vehicle: Klucel (hydroxypropylcellulose) (HPC)) was 96 % of control; the T/C (dose: 100.0 mg/kg/injection, schedule: Q04DX003 (ip), vehicle: Klucel (hydroxypropylcellulose) (HPC)) was 88 % of control; the T/C (dose: 200.0 mg/kg/injection, schedule: Q04DX003 (ip), vehicle: Klucel (hydroxypropylcellulose) (HPC)) is 95 % of control; the T/C (dose: 400.0 mg/kg/injection, schedule: Q01DX009 (ip), vehicle: Klucel (hydroxypropylcellulose) (HPC)) is 86 % of control; the T/C (dose: 400.0 mg/kg/injection, schedule: Q04DX003 (ip), vehicle: Klucel (hydroxypropylcellulose) (HPC)) was 97 % of control.

On to `O=[N+]([O-])c1ccc(OCc2ccc(S(=O)(=O)F)c(Cl)c2)c(Cl)c1`, for which the T/C is 101 % of control (dose: 100.0 mg/kg/injection, schedule: Q01DX009 (ip), vehicle: other); 101 % of control (dose: 100.0 mg/kg/injection, schedule: Q04DX003 (ip), vehicle: saline); 108 % of control (dose: 200.0 mg/kg/injection, schedule: Q01DX009 (ip), vehicle: other); 104 % of control (dose: 200.0 mg/kg/injection, schedule: Q04DX003 (ip), vehicle: saline); 94 % of control (dose: 400.0 mg/kg/injection, schedule: Q01DX009 (ip), vehicle: other); 88 % of control (dose: 400.0 mg/kg/injection, schedule: Q04DX003 (ip), vehicle: saline).

With `O=C1C(Cl)=C(N2CC2)C(=O)c2ccccc21`, the T/C runs as follows: (dose: 2.5 mg/kg/injection, schedule: Q01DX009 (ip), vehicle: Klucel (hydroxypropylcellulose) (HPC)) 107 % of control; (dose: 5.0 mg/kg/injection, schedule: Q01DX009 (ip), vehicle: Klucel (hydroxypropylcellulose) (HPC)) 93 % of control.

Take `C[N+]1(C)C2CCC1CC(=NO)C2`: under setting [5], the T/C is 104 % of control.

Turning to `O=C1C=CC2(CCC23C=CC(=O)O3)O1` (configuration not stated), the T/C runs as follows: (dose: 13.0 mg/kg/injection, schedule: Q01DX Z (ip), vehicle: saline) 96 % of control; (dose: 20.0 mg/kg/injection, schedule: Q01DX Z (ip), vehicle: saline) 102 % of control; (dose: 30.0 mg/kg/injection, schedule: Q01DX Z (ip), vehicle: saline) 104 % of control; (dose: 45.0 mg/kg/injection, schedule: Q01DX Z (ip), vehicle: saline) 102 % of control and 109 % of control.

Regarding `Cc1ccc(Nc2nc(N)nc(N)c2C=O)cc1`, the T/C runs as follows: (dose: 50.0 mg/kg/injection, schedule: Q01DX001 (ip), vehicle: alcohol) 89 % of control; (dose: 100.0 mg/kg/injection, schedule: Q01DX001 (ip), vehicle: alcohol) 86 % of control; (dose: 200.0 mg/kg/injection, schedule: Q01DX001 (ip), vehicle: alcohol) 102 % of control; (dose: 400.0 mg/kg/injection, schedule: Q01DX001 (ip), vehicle: alcohol) 86 % of control.

Take `O=C(O)CC1(CC(=O)O)CCCCC1`: the T/C was 90 % of control under setting [2], 95 % of control under setting [3] and 92 % of control under setting [4].
